Measurements reported in patent publication US11518763B2 (SCOHIA PHARMA, INC., priority 2018, dated 2022).
Where two headings read alike, the source gives them in different places.

Biological target: T1, binding between NRF2 and KEAP1 (biotinylated human KEAP1 protein (Kelch domain), TAMRA-labeled NRF2 peptide) (Homo sapiens, UniProt Q14145)
T1 construct: biotinylated human KEAP1 protein (Kelch domain); biotin (biotinylated)
Assay: Measurement of activity of inhibiting NRF2 binding (NRF2-KEAP1 TR-FRET)
Conditions: for inhibition at 0.1 µM: read-out: NRF2 binding inhibitory activity (at 100 nM)
Description: Test Example 1: Measurement of Activity of Inhibiting NRF2 Binding
The inhibitory activity of test compounds against the binding between NRF2 and KEAP1 was measured by Time Resolved Fluorescence Resonance Energy Transfer (TR-FRET) method. Into a 384 well plate, 2 μL of a compound, 2 μL of 2 nM solution of biotinylated human KEAP1 protein (Kelch domain), 2 μL of 14 nM solution of TAMRA-labeled NRF2 peptide (TAMRA-Abu(4)-VWYTDIRMRDWM-OH), and 2 μL of 2 nM solution of Tb-labeled streptavidin, all solutions diluted with assay buffer (25 mM HEPES, pH7.5, 150 mM NaCl, 0.01% Tween-20), were added. For some wells, the KEAP1 protein was not added to define control wells. The plate was incubated at room temperature for 60 minutes, and time-resolved fluorescence was measured with a plate reader Envision (manufactured by PerkinElmer). The inhibitory activity for each compound at a compound concentration of 100 nM were calculated as a relative activity value by setting the fluorescence intensity of control wells to which the KEAP1 protein was not added as 100% inhibition, and the fluorescence intensity of wells to which no compound was added as 0%.
The measurement results according to the method described above (inhibition rate of signal value relative to control at 100 nM of test compound) are shown in Table 3.

[1] = inhibition rate relative to control at 100 nM test compound, TR-FRET, 60 min at room temperature
[2] = inhibition rate relative to control at 100 nM test compound, TR-FRET, 60 min at room temperature, 0.1 µM

T1 sequence (Q14145 321-609 limits assumed): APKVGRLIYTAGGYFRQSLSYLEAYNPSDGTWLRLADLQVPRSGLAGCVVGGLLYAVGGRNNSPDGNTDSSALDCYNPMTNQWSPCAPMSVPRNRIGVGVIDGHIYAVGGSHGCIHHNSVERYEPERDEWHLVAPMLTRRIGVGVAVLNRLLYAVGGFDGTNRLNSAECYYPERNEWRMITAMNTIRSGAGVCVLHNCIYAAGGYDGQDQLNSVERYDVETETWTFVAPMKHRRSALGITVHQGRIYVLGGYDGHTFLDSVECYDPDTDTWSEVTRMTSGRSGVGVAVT

Structure (SMILES) | inhibition at 0.1 µM [1] | other results
Cc1c2ccc3c1nnn3CCCCOc1cc(Cl)c(c(Cl)c1)C(=O)N1CCc3ccc(cc3C1)C2C(C)(C)C(=O)O (stereo not shown) [Example 66, 2-[18,30-dichloro-32-methyl-20-oxo-15-oxa-8,9,10,21-tetrazahexacyclo[19.5.3.2^16,19.1^3,7.0^6,10.0^24,28]dotriaconta-1(27),3(32),4,6,8,16(31),17,19(30),24(28),25-decaen-2-yl]-2-methylpropanoic acid] | – | NRF2 binding inhibitory activity (at 100 nM) [2]: 94%
Cc1c2ccc3c1nnn3CCCCOc1ccc(cc1)C(=O)N1CCc3ccc(cc3C1)C2CC(=O)O (racemic) [Example 30, [32-Methyl-20-oxo-15-oxa-8,9,10,21-tetraazahexacyclo[19.5.3.2^16,19.1^3,7.0^6,10.0^24,28]dotriaconta-1(26),3(32),4,6,8,16,18,24,27,30-decaen-2-yl]acetic acid] | 100% | –
Cc1c2ccc3c1nnn3CCCCCc1ccc(cc1)C(=O)N1CCc3ccc(cc3C1)C2CC(=O)O (racemic) [Example 1, [32-Methyl-20-oxo-8,9,10,21-tetraazahexacyclo[19.5.3.2^16,19.1^3,7.0^6,10.0^24,28]dotriaconta-1(26),3(32),4,6,8,16,18,24,27,30-decaen-2-yl]acetic acid] | 100% | –
Cc1cc2cc(C)c1C(=O)N1CCc3ccc(cc3C1)C(CC(=O)O)c1ccc3c(nnn3CCCOC2)c1C (stereo not shown) [Example 68, [18,30,32-trimethyl-20-oxo-14-oxa-8,9,10,21-tetrazahexacyclo[19.5.3.2^16,19.1^3,7.0^6,10.0^24,28]dotriaconta-1(27),3(32),4,6,8,16,18,24(28),25,30-decaen-2-yl]acetic acid] | – | NRF2 binding inhibitory activity (at 100 nM) [2]: 93%
Cc1c2ccc3c1nnn3CCCOCc1ccc(cc1)C(=O)N1CCc3ccc(cc3C1)C2CC(=O)O (racemic) [Example 16, [32-Methyl-20-oxo-14-oxa-8,9,10,21-tetraazahexacyclo[19.5.3.2^16,19.1^3,7.0^6,10.0^24,28]dotriaconta-1(26),3(32),4,6,8,16,18,24,27,30-decaen-2-yl]acetic acid] | 100% | –
Cc1c2ccc3c1nnn3CCCCCCc1ccc(cc1)C(=O)N1CCc3ccc(cc3C1)C2CC(=O)O (racemic) [Example 15, [33-Methyl-21-oxo-8,9,10,22-tetraazahexacyclo[20.5.3.2^17,20.1^3,7.0^6,10.0^25,29]tritriaconta-1(27),3(33),4,6,8,17,19,25,28,31-decaen-2-yl]acetic acid] | 100% | –
COc1cc2ccc1C(=O)N1CCc3ccc(cc3C1)C(CC(=O)O)c1ccc3c(nnn3CCCOC2)c1C (racemic) [Example 22, [18-Methoxy-32-methyl-20-oxo-14-oxa-8,9,10,21-tetraazahexacyclo[19.5.3.2^16,19.1^3,7.0^6,10.0^24,28]dotriaconta-1(26),3(32),4,6,8,16,18,24,27,30-decaen-2-yl]acetic acid] | 100% | –
Cc1c2ccc3c1nnn3CCCCCc1ccc(cc1)C(=O)N1CCc3ccc(cc3C1)C2C(C)C(=O)O (stereo not shown) [Example 6, 2-[32-Methyl-20-oxo-8,9,10,21-tetraazahexacyclo[19.5.3.2^16,19.1^3,7.0^6,10.0^24,28]dotriaconta-1(26),3(32),4,6,8,16,18,24,27,30-decaen-2-yl]propanoic acid] | 100% | –
Cc1c2ccc3c1nnn3CCCOCc1ccc(c(OC(F)(F)F)c1)C(=O)N1CCc3ccc(cc3C1)C2CC(=O)O (racemic) [Example 20, [32-Methyl-20-oxo-18-(trifluoromethoxy)-14-oxa-8,9,10,21-tetraazahexacyclo[19.5.3.2^16,19.1^3,7.0^6,10.0^24,28]dotriaconta-1(26),3(32),4,6,8,16,18,24,27,30-decaen-2-yl] acetic acid] | 100% | –
Cc1cc2cc(C)c1C(=O)N1CCc3ccc(cc3C1)C(C(C)(C)C(=O)O)c1ccc3c(nnn3CCCOC2)c1C (stereo not shown) [Example 59, 2-methyl-2-[18,30,32-trimethyl-20-oxo-14-oxa-8,9,10,21-tetrazahexacyclo[19.5.3.2^16,19.1^3,7.0^6,10.0^24,28]dotriaconta-1(27),3(32),4,6,8,16(31),17,19(30),24(28),25-decaen-2-yl]propanoic acid] | – | NRF2 binding inhibitory activity (at 100 nM) [1]: 100%
Cc1c2ccc3c1nnn3CCCOCc1ccc(c(C(F)(F)F)c1)C(=O)N1CCc3ccc(cc3C1)C2CC(=O)O (racemic) [Example 23, [32-Methyl-20-oxo-18-(trifluoromethyl)-14-oxa-8,9,10,21-tetraazahexacyclo[19.5.3.2^16-19.1^3,7.0^6,10.0^24,28]dotriaconta-1(26),3(32),4,6,8,16,18,24,27,30-decaen-2-yl]acetic acid] | 100% | –
Cc1oc(=O)oc1COC(=O)CC1c2ccc3c(c2)CN(CC3)C(=O)c2ccc(cc2)COCCCn2nnc3c(C)c1ccc32 (stereo not shown) [Example 34, (5-Methyl-2-oxo-2H-1,3-dioxol-4-yl)methyl [32-methyl-20-oxo-14-oxa-8,9,10,21-tetraazahexacyclo[19.5.3.2^16,19.1^3,7.0^6,10.0^24,28]dotriaconta-1(26),3(32),4,6,8,16,18,24,27,30-decaen-2-yl]acetate] | 99% | –
Cc1oc(=O)oc1COC(=O)CC1c2ccc3c(c2)CN(CC3)C(=O)c2ccc(cc2)CCCCCn2nnc3c(C)c1ccc32 (stereo not shown) [Example 35, (5-Methyl-2-oxo-2H-1,3-dioxol-4-yl)methyl [32-methyl-20-oxo-8,9,10,21-tetraazahexacyclo[19.5.3.2^16,19.1^3,7.0^6,10.0^24,28]dotriaconta-1(26),3(32),4,6,8,16,18,24,27,30-decaen-2-yl]acetate] | 99% | –
Cc1ccc(NC(=O)CC2c3ccc4c(c3)CN(CC4)C(=O)c3ccc(cc3)COCCCn3nnc4c(C)c2ccc43)cn1 (stereo not shown) [Example 42] | 60% | –
Cc1c2ccc3c1nnn3CCCOCc1ccc(cc1)C(=O)N1CCc3ccc(cc3C1)C2CC(=O)O (stereo not shown) [Example 41, Sodium [32-methyl-20-oxo-14-oxa-8,9,10,21-tetraazahexacyclo[19.5.3.2^16,19.1^3.7.0^6,10.0^24,28]dotriaconta-1(26),3(32),4,6,8,16,18,24,27,30-decaen-2-yl]acetate] | – | inhibition at 0.1 µM: 100%

Continued, in another order:

inhibition at 0.1 µM [1] | Structure (SMILES) | other results
100% | Cc1c2ccc3c1nnn3CCCCOc1cc(F)c(c(F)c1)C(=O)N1CCc3ccc(cc3C1)C2CC(=O)O (racemic) [Example 32, [18,30-Difluoro-32-methyl-20-oxo-15-oxa-8,9,10,21-tetraazahexacyclo[19.5.3.2^16,19.1^3,7.0^6,10.0^24,28]dotriaconta-1(26),3(32),4,6,8,16,18,24,27,30-decaen-2-yl]acetic acid] | –
100% | CCc1cc2ccc1C(=O)N1CCc3ccc(cc3C1)C(CC(=O)O)c1ccc3c(nnn3CCCOC2)c1C (racemic) [Example 18, [18-Ethyl-32-methyl-20-oxo-14-oxa-8,9,10,21-tetraazahexacyclo[19.5.3.2^16,19.1^3,7.0^6,10.0^24,28]dotriaconta-1(26),3(32),4,6,8,16,18,24,27,30-decaen-2-yl]acetic acid] | –
100% | Cc1cc2ccc1C(=O)N1CCc3ccc(cc3C1)C(CC(=O)O)c1ccc3c(nnn3CCCOC2)c1C (racemic) [Example 17, [18,32-Dimethyl-20-oxo-14-oxa-8,9,10,21-tetraazahexacyclo[19.5.3.2^16,19.1^3,7.0^6,10.0^24,28]dotriaconta-1(26),3(32),4,6,8,16,18,24,27,30-decaen-2-yl]acetic acid] | –
100% | Cc1c2ccc3c1nnn3CCCCOc1ccc(c3c1OC(C)(C)C3)C(=O)N1CCc3ccc(cc3C1)C2CC(=O)O (racemic) [Example 33, [6,6,33-Trimethyl-2-oxo-7,10-dioxa-1,15,16,17-tetraazaheptacyclo[22.5.3.2^3.9.1^18,22.0^4,8.0^15,19.0^27,31]pentatriaconta-3,8,16,18(33),19,21,24,26,31,34-decaen-23-yl]acetic acid] | –
99% | Cc1c2ccc3c1nnn3CCCCc1ccc(cc1)C(=O)N1CCc3ccc(cc3C1)C2CC(=O)O (racemic) [Example 13, [31-Methyl-19-oxo-8,9,10,20-tetraazahexacyclo[18.5.3.2^15,18.1^3,7.0^6,10.0^23,27]hentriaconta-1(25),3(31),4,6,8,15,17,23,26,29-decaen-2-yl]acetic acid] | –
100% | O=C(O)CC1c2ccc3c(c2)CN(CC3)C(=O)c2ccc(cc2)CCCCCn2nnc3cc1ccc32 (racemic) [Example 2, [20-oxo-8,9,10,21-tetraazahexacyclo[19.5.3.2^16,19.1^3,7.0^6,10.0^24,28]dotriaconta-1(26),3(32),4,6,8,16,18,24,27,30-decaen-2-yl]acetic acid] | –
100% | Cc1c2ccc3c1nnn3CCCCCc1ccc(c3c1CC(C)(C)O3)C(=O)N1CCc3ccc(cc3C1)C2CC(=O)O (racemic) [Example 8, [6,6,33-Trimethyl-2-oxo-5-oxa-1,15,16,17-tetraazaheptacyclo[22.5.3.2^3,9.1^18,22.0^4,8.0^15,19.0^27,31]pentatriaconta-3,8,16,18(33),19,21,24,26,31,34-decaen-23-yl]acetic acid] | –
